Results from patent US8957084B2, “7,8-cyclicmorphinan analogs” (Purdue Pharma L.P., priority 2012, dated 2015).

Key:
μ-opioid receptor [1] = target: T1, μ-opioid receptor (Homo sapiens (Human), UniProt P35372); assay: μ-opioid receptor radioligand dose-displacement binding assay ([3H]-diprenorphine); settings: [3H]-diprenorphine displacement
Method: Radioligand dose-displacement binding assays for μ-opioid receptors used 0.3 nM [^3H]-diprenorphine (Perkin Elmer, Shelton, Conn.), with […] membrane protein/well in a final volume of 500 μl binding buffer (10 mM MgCl2, 1 mM EDTA, 5% DMSO, 50 mM HEPES, pH 7.4). Reactions were carried out in the absence or presence of increasing concentrations of unlabeled naloxone. All reactions were conducted in 96-deep well polypropylene plates for 2 hours at room temperature. Binding reactions were terminated by rapid filtration onto 96-well Unifilter GF/C filter plates (Perkin Elmer, Shelton, Conn.), presoaked in 0.5% polyethylenimine using a 96-well tissue harvester (Perkin Elmer, Shelton, Conn.) followed by performing three filtration washes with 500 μl of ice-cold binding buffer. Filter plates were subsequently dried at 50° C. for 2-3 hours. BetaScint scintillation cocktail (Perkin Elmer, Shelton, Conn.) was added (50 μl/well), and plates were counted using a Packard Top-Count for 1 min/well. The data were analyzed using the one-site competition curve fitting functions in GraphPad PRISM™ v. 3.0 or higher (San Diego, Calif.), or an in-house function for one-site competition curve-fitting.
(§1) In TABLE 1, binding affinity of certain Compounds of the Invention to the μ- and κ-opioid receptors was determined as described above.

κ opioid receptor [2] = target: T2, κ opioid receptor (Homo sapiens (Human), UniProt P41145); assay: κ-opioid receptor [35S]GTPγS functional assay, HEK-293 cells; assay type: biochemical; settings: for Emax: relative to U69,593
Method: (§2) Membranes from HEK-293 cells, CHO or U-2 OS cells expressing the recombinant human kappa opioid receptor (κ) were prepared by lysing cells in ice cold hypotonic buffer (2.5 mM MgCl2, 50 mM HEPES, pH 7.4) (10 mL/10 cm dish) followed by homogenization with a tissue grinder/Teflon pestle. Membranes were collected by centrifugation at 30,000×g for 15 min at 4° C. and pellets were resuspended in hypotonic buffer to a final concentration of 1-3 mg/mL. Protein concentrations were determined using the BioRad protein assay reagent with bovine serum albumen as standard. Aliquots of κ receptor membranes were stored at −80° C.
(§3) Functional [^35S]GTPγS binding assays were conducted as follows. κ opioid receptor membrane solution was prepared by sequentially adding final concentrations of 0.026 μg/μl κ membrane protein (in-house), 10 μg/mL saponin, 3 μM GDP and 0.20 nM [^35S]GTPγS to binding buffer (100 mM NaCl, 10 mM MgCl2, 20 mM HEPES, pH 7.4) on ice. The prepared membrane solution (190 μl/well) was transferred to 96-shallow well polypropylene plates containing 10 μl of 20× concentrated stock solutions of agonist prepared in DMSO. Plates were incubated for 30 min at a temperature of about 25° C. with shaking. Reactions were terminated by rapid filtration onto 96-well Unifilter GF/B filter plates (Perkin Elmer, Shelton, Conn.) using a 96-well tissue harvester (Packard) and followed by three filtration washes with 200 μl ice-cold binding buffer (10 mM NaH2PO4, 10 mM Na2HPO4, pH 7.4). Filter plates were subsequently dried at 50° C. for 2-3 hours. Fifty μl/well scintillation cocktail (Perkin Elmer, Shelton, Conn.) was added and plates were counted in a Packard Top-Count for 1 min/well.
(§4) κ GTP EC50 is the concentration of a compound providing 50% of the maximal response for the compound at a κ receptor.
(§5) κ GTP Emax (%) is the maximal effect elicited by a compound relative to the effect elicited by U69,593.
(§6) In TABLE 2, activity response of certain Compounds of the Invention to the μ- and κ-opioid receptors was determined as described above for functional assays using HEK-293 cells.

μ-opioid receptor [3] = target: T1, μ-opioid receptor; assay: μ-opioid receptor [35S]GTPγS functional assay, HEK-293 cells; assay type: biochemical; settings: for Emax: relative to DAMGO
Method: (§7) [^35S]GTPγS functional assays were conducted using freshly thawed μ-receptor membranes prepared in-house from a cell line expressing recombinant μ opioid receptor in a HEK-293, CHO or U-2 OS cell background, or purchased from a commercial source (Perkin Elmer, Shelton, Conn.; or DiscovRx, Fremont, Calif.). Assay reactions were prepared by sequentially adding the following reagents to binding buffer (100 mM NaCl, 10 mM MgCl2, 20 mM HEPES, pH 7.4) on ice (final concentrations indicated): membrane protein (0.026 mg/mL), saponin ([…]), GDP ([…]) and [^35S]GTPγS (0.20 nM; Perkin Elmer, Shelton, Conn.). The prepared membrane solution (190 μl/well) was transferred to 96-shallow well polypropylene plates containing 10 μl of 20× concentrated stock solutions of the agonist [D-Ala^2, N-methyl-Phe^4 Gly-ol^5]-enkephalin (DAMGO) prepared in dimethyl sulfoxide (DMSO). Plates were incubated for 30 min at about 25° C. with shaking. Reactions were terminated by rapid filtration onto 96-well Unifilter GF/B filter plates (Perkin Elmer, Shelton, Conn.) using a 96-well tissue harvester (Perkin Elmer, Shelton, Conn.) followed by three filtration washes with 200 μl of ice-cold wash buffer (10 mM NaH2PO4, 10 mM Na2HPO4, pH 7.4). Filter plates were subsequently dried at 50° C. for 2-3 hours. BetaScint scintillation cocktail (Perkin Elmer, Shelton, Conn.) was added (50 μl/well) and plates were counted using a Packard Top-Count for 1 min/well. Data were analyzed using the sigmoidal dose-response curve fitting functions in GraphPad PRISM v. 3.0, or an in-house function for non-linear, sigmoidal dose-response curve-fitting.
(§8) μ GTP EC50 is the concentration of a compound providing 50% of the maximal response for the compound at a μ-opioid receptor.
(§9) μ GTP Emax (%) is the maximal effect elicited by a compound relative to the effect elicited by DAMGO, a standard μ agonist. Generally, the μ GTP Emax (%) value measures the efficacy of a compound to treat or prevent pain or other Conditions.
as §6

[4] = target: recombinant human kappa opioid receptor (κ) (Homo sapiens (Human), UniProt P41145); assay: κ-opioid receptor radioligand dose-displacement binding assay ([3H]-U69,593); settings: [3H]-U69,593 displacement
Method: as §2
Radioligand dose displacement assays used 0.4 nM [^3H]-U69,593 (GE Healthcare, Piscataway, N.J.; 40 Ci/mmole) with 15 μg membrane protein (recombinant κ opioid receptor expressed in HEK 293 cells; in-house prep) in a final volume of 200 μl binding buffer (5% DMSO, 50 mM Trizma base, pH 7.4). Non-specific binding was determined in the presence of 10 μM unlabeled naloxone or U69,593. All reactions were performed in 96-well polypropylene plates for 1 hour at a temperature of about 25° C. Binding reactions were terminated by rapid filtration onto 96-well Unifilter GF/C filter plates (Perkin Elmer, Shelton, Conn.) presoaked in 0.5% polyethylenimine (Sigma). Harvesting was performed using a 96-well tissue harvester (Perkin Elmer, Shelton, Conn.) followed by five filtration washes with 200 μl ice-cold binding buffer. Filter plates were subsequently dried at 50° C. for 1-2 hours. Fifty μl/well scintillation cocktail (Perkin Elmer, Shelton, Conn.) was added and plates were counted in a Packard Top-Count for 1 min/well.
as §1

μ-opioid receptor [5] = target: T1, μ-opioid receptor; assay: μ-opioid receptor [35S]GTPγS functional assay, U-2 OS cells; assay type: biochemical; settings: for Emax: GTPγS, U-2 OS cells, relative to DAMGO
Method: as §7, §8, §9
(§10) In TABLE 3, activity response of certain Compounds of the Invention to the μ- and κ-opioid receptors was determined as described above for functional assays using U-2 OS cells.

κ opioid receptor [6] = target: T2, κ opioid receptor; assay: κ-opioid receptor [35S]GTPγS functional assay, U-2 OS cells; assay type: biochemical; settings: for Emax: GTPγS, U-2 OS cells, relative to U69,593
Method: as §2, §3, §4, §5, §10

Row | SMILES | Ki (μ-opioid receptor [1]) [nM] | EC50 (κ opioid receptor [2]) [nM] | Emax (κ opioid receptor [2]; GTPγS, HEK-293 cells) [%] | EC50 (μ-opioid receptor [3]) [nM] | Emax (μ-opioid receptor [3]; GTPγS, HEK-293 cells) [%] | Ki [4] [nM] | EC50 (μ-opioid receptor [5]) [nM] | Emax (μ-opioid receptor [5]) [%] | EC50 (κ opioid receptor [6]) [nM] | Emax (κ opioid receptor [6]) [%] | EC50 (κ opioid receptor [2]; GTPγS, HEK-293 cells, read-out: κ EC50) [nM] | EC50 (μ-opioid receptor [3]; GTPγS, HEK-293 cells, read-out: μ EC50) [nM]
1 | COc1ccc2c(c1)[C@]13CCN(CC4CC4)[C@H](C2)[C@@H]1C1CC1C(=O)C3 (stereo partly drawn) [Compound 1, (1bR,2R,7bS)-12-(cyclopropylmethyl)-6-methoxy-1,1b,2,3,8,9a-hexahydro-2,7b-(epiminoethano)cyclopropa[a]phenanthren-9(1aH)-one] | 112 ± 26.9 | 136 ± 25.4 | 81 ± 2.27 | 53.6 ± 8.94 | 63.6 ± 3.47 | 8.87 ± 2.73 | – | – | – | – | – | –
2 | COc1ccc2c(c1)[C@]13CCN(CC4CC4)[C@H](C2)[C@@H]1C1CC1C(O)C3 (stereo partly drawn) [Compound 2, (1bR,2R,7bS)-12-(cyclopropylmethyl)-6-methoxy-1,1a,1b,2,3,8,9,9a-octahydro-2,7b-(epiminoethano)cyclopropa[a]phenanthren-9-ol] | – | 1120 ± 230 | 76.7 ± 3.18 | 414 ± 73 | 54.3 ± 4.67 | 23.3 ± 6.06 | – | – | – | – | – | –
3 | C=CCOC1C[C@]23CCN(CC4CC4)[C@H](Cc4ccc(OC)cc42)C3C2CC12 (stereo partly drawn) [Compound 3, (2R,7bS)-9-(allyloxy)-12-(cyclopropylmethyl)-6-methoxy-1,1a,1b,2,3,8,9,9a-octahydro-2,7b-(epiminoethano)cyclopropa[a]phenanthrene] | 30 ± 2.76 | 116 ± 27.4 | 66.7 ± 7.88 | 75.2 ± 9.24 | 84.3 ± 5.81 | 3.04 ± 0.6 | 90.7 ± 17 | 52.7 ± 7.54 | 29.5 ± 4.5 | 105 ± 4.67 | – | –
4 | C=C1C[C@@]23CCN(CC4CC4)[C@H](Cc4ccc(OC)cc42)C3C2CC12 (stereo partly drawn) [Compound 4, (2R,7bS)-12-(cyclopropylmethyl)-6-methoxy-9-methylene-1,1a,1b,2,3,8,9,9a-octahydro-2,7b-(epiminoethano)cyclopropa[a]phenanthrene] | 142 ± 10.8 | 103 ± 36.9 | 106 ± 1.67 | 42.2 ± 3.59 | 113 ± 3.38 | 2.19 ± 0.6 | 83.1 ± 7.77 | 66.7 ± 4.81 | 8.95 ± 1.02 | 102 ± 1.53 | – | –
5 | COc1ccc2c(c1)[C@]13CCN(CC4CC4)[C@H](C2)[C@@H]1[C@H]1C2CCC(CC2)[C@H]1C(=O)C3 [Compound 5, (4aR,4bR,5R,10bS,12aR)-15-(cyclopropylmethyl)-9-methoxy-2,3,4,4a,5,6,11,12a-octahydro-1H-5,10b-(epiminoethano)-1,4-ethanochrysen-12(4bH)-one] | 242 ± 46 | – | 19.3 ± 0.88 | – | 33 ± 4.71 | 126 ± 21.9 | – | – | – | – | 1370 ± 419 | 216 ± 16.6
